pKd: −log10 of the molar value. Converted amounts (≈) assume the structure as drawn. Like-named read-outs stand apart in the source and are kept apart here.
Columns and labels:
[1] = test system: C. albicans Cdr1 overexpressed in Pdr5-deficient S. cerevisiae; experiment: organism not typed; type: cell-based; conditions: 48 h, read-out: IC50 (fluconazole-sensitivity, OD600nm)
[2] = test system: Pdr5-deficient S. cerevisiae (empty vector); experiment: microbe, parasite or virus in culture; type: cell-based; conditions: Saccharomyces cerevisiae, 48 h, read-out: IC50 (fluconazole-sensitivity, OD600nm)
Cdr1 fused with EGFP = Cdr1 fused with EGFP (Candida albicans, UniProt Q5ANA3); experiment: Microscale thermophoresis; type: binding, C. albicans
purified Cdr1 = purified Cdr1 (Candida albicans, UniProt Q5ANA3); experiment: ATPase activity assay; type: biochemical, C. albicans; conditions: drug ten times Cdr1 concentration (4 μM vs 0.4 μM), GDN, relative to DMSO
[3] = test system: Cdr1 overexpressed in Pdr5-knocked-out S. cerevisiae; type: cell-based
[4] = test system: azole-resistant clinical C. albicans isolates; conditions: cited from earlier work
C. albicans Cdr2 = conditions: cited from earlier work
C. albicans Cdr1 = conditions: cited from earlier work

purified Cdr1, sequence (Q5ANA3 whole entry): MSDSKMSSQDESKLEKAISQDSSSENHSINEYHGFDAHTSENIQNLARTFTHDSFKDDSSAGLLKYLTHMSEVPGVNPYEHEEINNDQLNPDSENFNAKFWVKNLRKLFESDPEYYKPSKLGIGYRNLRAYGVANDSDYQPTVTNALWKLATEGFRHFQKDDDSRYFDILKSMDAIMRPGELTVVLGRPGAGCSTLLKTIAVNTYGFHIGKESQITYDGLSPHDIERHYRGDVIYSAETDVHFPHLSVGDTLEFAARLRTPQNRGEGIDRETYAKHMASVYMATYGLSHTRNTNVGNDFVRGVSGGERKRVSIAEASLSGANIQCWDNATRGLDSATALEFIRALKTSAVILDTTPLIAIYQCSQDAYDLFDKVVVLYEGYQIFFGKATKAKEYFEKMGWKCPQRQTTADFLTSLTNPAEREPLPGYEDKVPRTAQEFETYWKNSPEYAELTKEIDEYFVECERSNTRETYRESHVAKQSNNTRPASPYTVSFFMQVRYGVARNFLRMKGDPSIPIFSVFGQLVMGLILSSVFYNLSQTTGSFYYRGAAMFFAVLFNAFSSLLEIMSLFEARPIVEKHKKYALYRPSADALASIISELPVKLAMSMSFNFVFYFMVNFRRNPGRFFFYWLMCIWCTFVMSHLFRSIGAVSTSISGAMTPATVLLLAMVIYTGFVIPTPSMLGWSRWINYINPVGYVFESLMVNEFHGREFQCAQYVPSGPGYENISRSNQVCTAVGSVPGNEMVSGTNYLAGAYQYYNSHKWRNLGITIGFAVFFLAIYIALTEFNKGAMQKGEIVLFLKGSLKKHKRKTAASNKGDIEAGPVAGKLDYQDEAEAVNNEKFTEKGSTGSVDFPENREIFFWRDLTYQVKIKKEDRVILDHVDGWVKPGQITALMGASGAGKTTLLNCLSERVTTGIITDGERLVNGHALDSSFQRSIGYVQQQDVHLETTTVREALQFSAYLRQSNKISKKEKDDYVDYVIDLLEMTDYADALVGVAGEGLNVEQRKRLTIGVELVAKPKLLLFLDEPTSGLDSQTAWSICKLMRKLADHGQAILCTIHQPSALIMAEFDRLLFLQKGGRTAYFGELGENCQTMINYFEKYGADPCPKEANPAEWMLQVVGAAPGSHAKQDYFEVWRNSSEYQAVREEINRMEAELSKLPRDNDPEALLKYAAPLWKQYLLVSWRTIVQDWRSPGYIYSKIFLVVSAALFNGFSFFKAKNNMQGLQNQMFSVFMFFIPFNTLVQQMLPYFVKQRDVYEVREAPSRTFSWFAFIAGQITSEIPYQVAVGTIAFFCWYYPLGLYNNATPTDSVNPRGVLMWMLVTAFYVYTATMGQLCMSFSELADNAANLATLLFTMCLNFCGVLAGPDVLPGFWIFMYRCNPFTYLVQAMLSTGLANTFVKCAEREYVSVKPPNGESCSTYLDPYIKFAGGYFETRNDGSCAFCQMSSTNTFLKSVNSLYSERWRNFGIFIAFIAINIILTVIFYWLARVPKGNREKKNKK
Cdr1 fused with EGFP, sequence (Q5ANA3 whole entry, the tested form may be a part): as the sequence (Q5ANA3 whole entry) above

Row | Compound | IC50 [1] | IC50 [2] | pKd (Cdr1 fused with EGFP) | ATP hydrolysis (relative ATPase activity, mean) (purified Cdr1) | pKd (Cdr1 fused with EGFP; read-out: dissociation constant (Kd), 100 nM Cdr1, PBS 0.02% DDM, 25 °C) | selectivity of inhibition Cdr1 vs Pdr5 ([3]; […], 1 μg/mL fluconazole, 0.1 μg/mL milbemycin oxime) | IC50 (milbemycin oxime-sensitivity, OD600nM) ([3]; with 1 µg/mL fluconazole) | IC50 (milbemycin oxime-sensitivity, OD600nM) ([3]; with 10 µg/mL fluconazole) | synergy with fluconazole [4] | inhibition of Cdr2 (C. albicans Cdr2) | inhibition of Cdr1 (C. albicans Cdr1)
1 | OC(Cn1cncn1)(Cn1cncn1)c1ccc(F)cc1F [fluconazole] | 56.6 µg/mL (≈ 185 µM) | 0.31 µg/mL (≈ 1.01 µM) | 4.21 | decreases slightly | – | – | – | – | – | – | –
2 | milbemycin oxime | – | – | – | 25.7% | 6.83 | selectively inhibits Cdr1 rather than Pdr5 | 0.034 µg/mL | 0.009 µg/mL | strong synergistic effects with fluconazole | – | –
3 | milbemycin α25 | – | – | – | – | – | – | – | – | – | potent inhibition | potent inhibition

Source: publication PMC11379888 (Nature Communications, 2024)
